From patent publication US20210087548A1, “Compositions and Methods for Inducing Protein Function” (priority 2017, published 2021)

Legend:
[1] = test system: HCV genotype 1a NS3 S122R; details: in vitro replication assay; cited from earlier work
[2] = test system: HCV genotype 1a NS3 S122G; details: in vitro replication assay; cited from earlier work
human VEGFA locus = type: cell-based; details: for VEGF concentration, empty vector control cells in respective drug (average): HEK293A, 48 hrs, average of 3 independent experiments
HCV genotype 1a NS3 V36M = details: in vitro replication assay; cited from earlier work
HCV genotype 1a NS3 T54A = details: in vitro replication assay; cited from earlier work
HCV genotype 1a NS3 F43L = details: in vitro replication assay; cited from earlier work
HCV genotype 1a NS3 Wt = details: in vitro replication assay; cited from earlier work
[3] = test system: HCV genotype 1a NS3 D168Y; details: in vitro replication assay; cited from earlier work
HCV genotype 1a NS3 Q80K = details: in vitro replication assay; cited from earlier work

SMILES | EC50 [1] [nM] | EC50 [2] [nM] | VEGF amounts in the culture medium (human VEGFA locus; HEK293A co-transfected with ZF-StaPL(ti)-tdRFP-KRAB and ZF-StaPL(ai)-YFP-VPR) | VEGF concentration, empty vector control cells in respective drug (average) (human VEGFA locus) [pg/mL] | EC50 (HCV genotype 1a NS3 V36M) [nM] | EC50 (HCV genotype 1a NS3 T54A) [nM] | EC50 (HCV genotype 1a NS3 F43L) [nM] | EC50 (HCV genotype 1a NS3 Wt) [nM] | EC50 [3] [nM] | EC50 (HCV genotype 1a NS3 Q80K) [nM]
C=C[C@@H]1C[C@]1(NC(=O)[C@@H]1C[C@@H](Oc2ncc(OC)c3ccc(Cl)cc23)CN1C(=O)[C@@H](NC(=O)OC(C)(C)C)C(C)(C)C)C(=O)NS(=O)(=O)C1CC1 [ASV, asunaprevir] | 2.6 | 0.65 | increased | 673 | 1.5 | 0.33 | 2.7 | 0.76 | 473 | 2.5
CCC[C@H](NC(=O)[C@@H]1[C@H]2CCC[C@H]2CN1C(=O)[C@@H](NC(=O)[C@@H](NC(=O)c1cnccn1)C1CCCCC1)C(C)(C)C)C(=O)C(=O)NC1CC1 [TPV, telaprevir] |  |  |  | 930 |  |  |  |  |  | 
